In test [1] the target is T1, SMYD3 (Homo sapiens (Human), UniProt Q9H7B4). The test can be described thus: SMYD3 biochemical assay (SPA, 3H-SAM methylation of MEKK2 protein substrate). The conditions noted are these: read-out: SMYD3 Biochem IC50*. The method, boiled down: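 SPA methyltransferase format: tag-cleaved human SMYD3, insect-cell GST-MEKK2 protein substrate, 3H-SAM donor, 30 min RT enzyme–compound preincubation, 100 uM cold SAM quench.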

The target of test [2] is T1, SMYD3. Briefly: SMYD3 cell assay (Trimethyl-MEKK2 In-Cell Western in 293T/17 cells). It is filed as cell-based. Conditions: read-out: SMYD3 Cell IC50*. The method, boiled down:
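In-Cell Western readout: methanol-fixed cells stained for trimethyl-MEKK2 and flag tag, ratio per well normalized to DMSO and background controls.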

T1 sequence (Q9H7B4 whole entry): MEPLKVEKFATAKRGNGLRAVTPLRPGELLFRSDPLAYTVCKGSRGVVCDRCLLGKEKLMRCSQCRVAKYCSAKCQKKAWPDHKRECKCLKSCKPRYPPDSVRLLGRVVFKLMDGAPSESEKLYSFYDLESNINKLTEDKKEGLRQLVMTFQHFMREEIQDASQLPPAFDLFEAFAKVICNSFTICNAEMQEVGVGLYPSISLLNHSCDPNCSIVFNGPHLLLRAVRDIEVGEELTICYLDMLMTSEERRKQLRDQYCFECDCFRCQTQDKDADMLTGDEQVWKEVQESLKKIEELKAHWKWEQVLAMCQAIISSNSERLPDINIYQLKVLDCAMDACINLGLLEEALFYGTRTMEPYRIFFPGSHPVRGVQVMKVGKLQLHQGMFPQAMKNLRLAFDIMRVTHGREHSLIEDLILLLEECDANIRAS

Turning to `CNC1CCN(S(=O)(=O)N2[C@@H]3CC[C@H]2C[C@@H](NC(=O)c2cc(C4CC4)on2)C3)CC1` [compound 812, 5-cyclopropyl-N-((1R,3r,5S)-8-((4-(methylamino)piperidin-1-yl)sulfonyl)-8-azabicyclo[3.2.1]octan-3-yl)isoxazole-3-carboxamide], the concentration for half-maximal inhibition (IC50) stood at 0.00265 µM in test [1] and 0.0411 µM in test [2].

On to `C[C@H]1C[C@@H](NC(=O)c2cc(C3CC3)on2)CCN1S(=O)(=O)N1CCC2(CCN2)CC1` [compound 813, N-((2S,4S)-1-((1,7-diazaspiro[3.5]nonan-7-yl)sulfonyl)-2-methylpiperidin-4-yl)-5-cyclopropylisoxazole-3-carboxamide], for which the IC50 in test [1] was 0.00273 µM; in test [2], 0.0357 µM.

Regarding `C[C@H]1C[C@@H](NC(=O)c2cc(C3CC3)on2)CCN1S(=O)(=O)CC[C@H]1CCN(C)C1` [compound 814, 5-cyclopropyl-N-((2S,4S)-2-methyl-1-((2-((R)-1-methylpyrrolidin-3-yl)ethyl)sulfonyl)piperidin-4-yl)isoxazole-3-carboxamide], the half-inhibitory concentration (IC50) in test [1] was found to be 0.00277 µM; in test [2], 0.0442 µM.

For `CCc1cc(C(=O)N[C@H]2C[C@H]3CC[C@@H](C2)N3S(=O)(=O)[C@H]2CC[C@@H](N)CC2)no1` [compound 815, N-((1R,3R,5S)-8-(((1s,4S)-4-aminocyclohexyl)sulfonyl)-8-azabicyclo[3.2.1]octan-3-yl)-5-ethylisoxazole-3-carboxamide], the IC50 was determined as 0.00278 µM in test [1] and 0.0526 µM in test [2].

On to `C[C@@H](C1CCN(C)CC1)S(=O)(=O)N1[C@@H]2CC[C@H]1C[C@@H](NC(=O)c1cc(C3CC3)on1)C2` [compound 816, 5-cyclopropyl-N-((1R,3S,5S)-8-(((S)-1-(1-methylpiperidin-4-yl)ethyl)sulfonyl)-8-azabicyclo[3.2.1]octan-3-yl)isoxazole-3-carboxamide], for which the IC50 in test [1] came to 0.00291 µM; in test [2] it was 0.0523 µM.

In the case of `O=C(N[C@H]1C[C@H]2CC[C@@H](C1)N2S(=O)(=O)N1CC2CCC(C1)N2)c1cc(C2CC2)on1` [compound 817, N-((1R,3r,5S)-8-((3,8-diazabicyclo[3.2.1]octan-3-yl)sulfonyl)-8-azabicyclo[3.2.1]octan-3-yl)-5-cyclopropylisoxazole-3-carboxamide], the IC50 in test [1] amounted to 0.00311 µM; in test [2], 0.0348 µM.

In the case of `CC(C)CN1CCC2(CC1)CN(S(=O)(=O)N1[C@@H]3CC[C@H]1C[C@@H](NC(=O)c1cc(C4CC4)on1)C3)C2` [compound 818, 5-cyclopropyl-N-((1R,3r,5S)-8-((7-isobutyl-2,7-diazaspiro[3.5]nonan-2-yl)sulfonyl)-8-azabicyclo[3.2.1]octan-3-yl)isoxazole-3-carboxamide], the IC50 was 0.00313 µM in test [1] and 0.0554 µM in test [2].

With `C[C@H]1C[C@@H](NC(=O)c2cc(C3CC3)on2)CCN1S(=O)(=O)C[C@@H]1CCC[C@@H](N)C1` [compound 819, N-((2S,4S)-1-((((1R,3R)-3-aminocyclohexyl)methyl)sulfonyl)-2-methylpiperidin-4-yl)-5-cyclopropylisoxazole-3-carboxamide], the half-inhibitory concentration (IC50) in test [1] worked out at 0.0032 µM; in test [2], 0.124 µM.

As for `CN(CCO)C1CCN(S(=O)(=O)N2[C@@H]3CC[C@H]2C[C@@H](NC(=O)c2cc(C4CC4)on2)C3)CC1` [compound 820, 5-cyclopropyl-N-((1R,3r,5S)-8-((4-((2-hydroxyethyl)(methyl)amino)piperidin-1-yl)sulfonyl)-8-azabicyclo[3.2.1]octan-3-yl)isoxazole-3-carboxamide], the IC50 in test [1] was found to be 0.00327 µM; in test [2] it was 0.0574 µM.

As to `CC(C)CCNC1CCN(S(=O)(=O)N2[C@@H]3CC[C@H]2C[C@@H](NC(=O)c2cc(C4CC4)on2)C3)CC1` [compound 821, 5-cyclopropyl-N-((1R,3r,5S)-8-((4-(isopentylamino)piperidin-1-yl)sulfonyl)-8-azabicyclo[3.2.1]octan-3-yl)isoxazole-3-carboxamide], the results for the IC50 in test [1] and in test [2] were 0.00328 µM and 0.0585 µM, respectively.

On to `CCN1C2CCC1CN(S(=O)(=O)N1[C@@H]3CC[C@H]1C[C@@H](NC(=O)c1cc(C4CC4)on1)C3)C2` [compound 822, 5-cyclopropyl-N-((1R,3r,5S)-8-((8-ethyl-3,8-diazabicyclo[3.2.1]octan-3-yl)sulfonyl)-8-azabicyclo[3.2.1]octan-3-yl)isoxazole-3-carboxamide], for which the values for the 50% inhibitory concentration (IC50) in test [1] and in test [2] were 0.00344 µM and 0.0437 µM, respectively.

As to `C[C@H]1C[C@@H](NC(=O)c2cc(C3CC3)on2)CCN1S(=O)(=O)CC1CCC(N(C)C)C1` (stereo partly drawn) [compound 823, 5-cyclopropyl-N-((2S,4S)-1-(((3-(dimethylamino)cyclopentyl)methyl)sulfonyl)-2-memylpiperidin-4-yl)isoxazole-3-carboxamide], the IC50 in test [1] amounted to 0.0035 µM; in test [2], 0.0672 µM.

For the molecule `O=C(N[C@H]1C[C@H]2CC[C@@H](C1)N2S(=O)(=O)N1CC2(CCN(Cc3ccccc3)CC2)C1)c1cc(C2CC2)on1` [compound 824, N-((1R,3r,5S)-8-((7-benzyl-2,7-diazaspiro[3.5]nonan-2-yl)sulfonyl)-8-azabicyclo[3.2.1]octan-3-yl)-5-cyclopropylisoxazole-3-carboxamide], the half-inhibitory concentration (IC50) was 0.00387 µM in test [1] and 0.0804 µM in test [2].

For `COCCN[C@H]1CC[C@H](S(=O)(=O)N2[C@@H]3CC[C@H]2C[C@@H](NC(=O)c2cc(C4CC4)on2)C3)CC1` [compound 825, 5-cyclopropyl-N-((1R,3R,5S)-8-(((1r,4R)-4-((2-methoxyemyl)amino)cyclohexyl)sulfonyl)-8-azabicyclo[3.2.1]octan-3-yl)isoxazole-3-carboxamide], the figures for the IC50 in test [1] and in test [2] were 0.00391 µM and 0.0553 µM, respectively.

For the molecule `COCCN[C@H]1CC[C@@H](S(=O)(=O)N2[C@@H]3CC[C@H]2C[C@@H](NC(=O)c2cc(C4CC4)on2)C3)CC1` [compound 826, 5-cyclopropyl-N-((1R,3R,5S)-8-(((1s,4S)-4-((2-methoxyethyl)amino)cyclohexyl)sulfonyl)-8-azabicyclo[3.2.1]octan-3-yl)isoxazole-3-carboxamide], the IC50 in test [1] turned out to be 0.00392 µM; in test [2], 0.0584 µM.

Turning to `C[C@H]1C[C@@H](NC(=O)c2cc(C3CC3)on2)CCN1S(=O)(=O)CC1CCCC(N)C1` (stereo partly drawn) [compound 827, N-((2S,4S)-1-(((3-aminocyclohexyl)methyl)sulfonyl)-2-methylpiperidin-4-yl)-5-cyclopropylisoxazole-3-carboxamide], the values for the 50% inhibitory concentration (IC50) in test [1] and in test [2] were 0.004 µM and 0.0727 µM, respectively.

Turning to `C[C@H]1C[C@@H](NC(=O)c2cc(C3CC3)on2)CCN1S(=O)(=O)N1C2CNCC1C2` [compound 828, N-((2S,4S)-1-((3,6-diazabicyclo[3.1.1]heptan-6-yl)sulfonyl)-2-methylpiperidin-4-yl)-5-cyclopropylisoxazole-3-carboxamide], the 50% inhibitory concentration (IC50) in test [1] amounted to 0.00418 µM; in test [2], 0.15 µM.

Consider `CCNC1CCN(S(=O)(=O)N2CC[C@H](NC(=O)c3cc(C4CC4)on3)C[C@@H]2C)CC1` [compound 829, 5-cyclopropyl-N-((2S,4S)-1-((4-(ethylamino)piperidin-1-yl)sulfonyl)-2-methylpiperidin-4-yl)isoxazole-3-carboxamide], for which the half-inhibitory concentration (IC50) in test [1] was 0.0043 µM; in test [2], 0.0702 µM.

Consider `NCC1CCN(S(=O)(=O)N2[C@@H]3CC[C@H]2C[C@@H](NC(=O)c2cc(C4CC4)on2)C3)CC1` [compound 830, N-((1R,3r,5S)-8-((4-(aminomethyl)piperidin-1-yl)sulfonyl)-8-azabicyclo[3.2.1]octan-3-yl)-5-cyclopropylisoxazole-3-carboxamide], for which the results for the half-inhibitory concentration (IC50) in test [1] and in test [2] were 0.00434 µM and 1.55 µM, respectively.

As for `CC1CN(S(=O)(=O)N2[C@@H]3CC[C@H]2C[C@@H](NC(=O)c2cc(C4CC4)on2)C3)CCC1N` (stereo partly drawn) [compound 831, N-((1R,3r,5S)-8-((4-amino-3-methylpiperidin-1-yl)sulfonyl)-8-azabicyclo[3.2.1]octan-3-yl)-5-cyclopropylisoxazole-3-carboxamide], the IC50 in test [1] amounted to 0.00436 µM; in test [2] it was 0.0851 µM.

In the case of `O=C(N[C@H]1C[C@H]2CC[C@@H](C1)N2S(=O)(=O)N1C2CNCC1C2)c1cc(C2CC2)on1` [compound 832, N-((1R,3r,5S)-8-((3,6-diazabicyclo[3.1.1]heptan-6-yl)sulfonyl)-8-azabicyclo[3.2.1]octan-3-yl)-5-cyclopropylisoxazole-3-carboxamide], the IC50 in test [1] worked out at 0.00438 µM; in test [2], 0.134 µM.

On to `CCc1cc(C(=O)N[C@H]2C[C@H]3CC[C@@H](C2)N3S(=O)(=O)[C@H]2CC[C@@H](NCCO)CC2)no1` [compound 833, 5-ethyl-N-((1R,3R,5S)-8-(((1s,4S)-4-((2-hydroxyethyl)amino)cyclohexyl)sulfonyl)-8-azabicyclo[3.2.1]octan-3-yl)isoxazole-3-carboxamide], for which the concentration for half-maximal inhibition (IC50) worked out at 0.00447 µM in test [1] and 0.0722 µM in test [2].

With `CN(CCCO)C1CCN(S(=O)(=O)N2[C@@H]3CC[C@H]2C[C@@H](NC(=O)c2cc(C4CC4)on2)C3)CC1` [compound 834, 5-cyclopropyl-N-((1R,3r,5S)-8-((4-((3-hydroxypropyl)(methyl)amino)piperidin-1-yl)sulfonyl)-8-azabicyclo[3.2.1]octan-3-yl)isoxazole-3-carboxamide], the half-inhibitory concentration (IC50) was 0.00457 µM in test [1] and 0.0487 µM in test [2].

As for `O=C(N[C@H]1C[C@H]2CC[C@@H](C1)N2S(=O)(=O)N1CCC2(CCCN2)CC1)c1cc(C2CC2)on1` [compound 835, N-((1R,3r,5S)-8-((1,8-diazaspiro[4.5]decan-8-yl)sulfonyl)-8-azabicyclo[3.2.1]octan-3-yl)-5-cyclopropylisoxazole-3-carboxamide], the half-maximal inhibitory concentration (IC50) is 0.00463 µM in test [1] and 0.118 µM in test [2].
